Measurements published in patent US20210070748A1, “INHIBITORS OF BRUTONS TYROSINE KINASE” (Pharmacyclics LLC, priority 2015, published 2021).

What was measured:
EGFR = EGFR (Homo sapiens, UniProt P00533); assay: Inhibition of a panel of kinases, in vitro HotSpot kinase assay: EGFR; assay type: biochemical; conditions: D-compounds panel data; 1 μM ATP
Experimental: The degree of inhibition of a panel of kinases is determined using the in vitro HotSpot kinase assay (purified enzymes, ^33P-ATP, an appropriate substrate and 1 μM ATP).

BTK-WT = target: T1, BTK-WT (Homo sapiens, UniProt Q06187); assay: Btk in vitro inhibitory activity (one of Method A TR-FRET, Method B electrophoretic mobility shift, Method C radiometric filter binding); assay type: biochemical; conditions: D-compounds panel data; read-out: IC50 BTK-WT
T1 construct: purified from insect cells as a full-length construct containing an N-terminal 6X-His tag; His6 (N); made in house; host or cells: insect cells (baculovirus Sf21 in Method B)
T1 sequence (Q06187 whole entry): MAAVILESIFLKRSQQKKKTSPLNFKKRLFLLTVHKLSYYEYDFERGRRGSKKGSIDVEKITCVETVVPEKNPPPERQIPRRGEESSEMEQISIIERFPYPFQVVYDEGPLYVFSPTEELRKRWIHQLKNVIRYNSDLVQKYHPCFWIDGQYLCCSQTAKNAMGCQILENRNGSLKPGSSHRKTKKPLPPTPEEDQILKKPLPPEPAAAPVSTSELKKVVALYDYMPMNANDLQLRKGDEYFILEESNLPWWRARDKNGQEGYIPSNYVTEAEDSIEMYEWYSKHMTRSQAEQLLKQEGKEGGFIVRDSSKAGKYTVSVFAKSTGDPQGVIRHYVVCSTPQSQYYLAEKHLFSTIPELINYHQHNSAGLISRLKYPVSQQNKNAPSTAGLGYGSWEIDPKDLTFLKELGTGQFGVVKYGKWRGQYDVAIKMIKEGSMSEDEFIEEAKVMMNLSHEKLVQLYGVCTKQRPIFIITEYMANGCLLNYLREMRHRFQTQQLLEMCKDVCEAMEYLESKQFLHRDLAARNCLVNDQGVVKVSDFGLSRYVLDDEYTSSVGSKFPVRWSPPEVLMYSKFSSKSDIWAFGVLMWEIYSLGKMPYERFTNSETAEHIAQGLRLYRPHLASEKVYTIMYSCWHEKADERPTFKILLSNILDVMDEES

Chain of EGFR (P00533 25-1210): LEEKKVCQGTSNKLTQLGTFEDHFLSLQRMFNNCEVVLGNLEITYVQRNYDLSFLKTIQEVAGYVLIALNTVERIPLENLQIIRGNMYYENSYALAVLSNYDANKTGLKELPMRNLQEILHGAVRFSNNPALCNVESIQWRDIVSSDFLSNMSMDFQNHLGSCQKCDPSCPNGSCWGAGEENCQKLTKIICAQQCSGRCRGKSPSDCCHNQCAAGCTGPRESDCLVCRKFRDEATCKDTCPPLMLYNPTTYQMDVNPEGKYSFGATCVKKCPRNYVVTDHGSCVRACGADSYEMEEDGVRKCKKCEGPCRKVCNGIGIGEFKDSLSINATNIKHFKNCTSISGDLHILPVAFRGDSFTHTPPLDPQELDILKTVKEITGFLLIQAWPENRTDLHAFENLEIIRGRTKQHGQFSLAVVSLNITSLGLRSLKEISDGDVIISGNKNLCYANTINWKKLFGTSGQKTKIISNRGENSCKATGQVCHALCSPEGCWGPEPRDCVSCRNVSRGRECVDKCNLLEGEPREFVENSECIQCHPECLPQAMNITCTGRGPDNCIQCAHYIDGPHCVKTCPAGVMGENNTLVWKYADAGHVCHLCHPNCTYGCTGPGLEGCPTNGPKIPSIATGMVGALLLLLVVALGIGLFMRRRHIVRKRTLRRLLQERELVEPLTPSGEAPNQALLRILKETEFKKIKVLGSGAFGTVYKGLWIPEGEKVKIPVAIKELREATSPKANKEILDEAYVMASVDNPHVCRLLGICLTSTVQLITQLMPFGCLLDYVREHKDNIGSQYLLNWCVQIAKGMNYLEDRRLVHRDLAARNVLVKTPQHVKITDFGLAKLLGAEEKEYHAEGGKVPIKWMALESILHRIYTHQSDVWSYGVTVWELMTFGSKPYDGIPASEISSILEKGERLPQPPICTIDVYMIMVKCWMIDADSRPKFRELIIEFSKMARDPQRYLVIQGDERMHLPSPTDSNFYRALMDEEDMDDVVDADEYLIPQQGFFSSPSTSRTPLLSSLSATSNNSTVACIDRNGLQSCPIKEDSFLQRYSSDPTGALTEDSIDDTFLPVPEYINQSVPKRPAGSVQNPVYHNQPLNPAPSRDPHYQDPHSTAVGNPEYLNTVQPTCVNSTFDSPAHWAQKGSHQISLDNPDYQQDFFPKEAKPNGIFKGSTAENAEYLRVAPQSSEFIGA

IC50 (EGFR) [nM] | IC50 (BTK-WT) [nM] | Compound
1000 to 10000 | 10 to 100 | C[C@@H]1CC[C@H](NC(=O)N(C)C)CN1c1cnc(C(N)=O)c(Nc2cnn(C)c2)n1 [Example D-151, 5-[(2R,5S)-5-[(dimethylcarbamoyl)amino]-2-methylpiperidin-1-yl]-3-[(1-methyl-1H-pyrazol-4-yl)amino]pyrazine-2-carboxamide]
1000 to 10000 | ≤ 10 | C[C@@H]1[C@H](NC(=O)N(C)C)CCCN1c1cnc(C(N)=O)c(Nc2cnn(C)c2)n1 [Example D-128, 5-[(2R,3R)-3-[(dimethylcarbamoyl)amino]-2-methylpiperidin-1-yl]-3-[(1-methyl-1H-pyrazol-4-yl)amino]pyrazine-2-carboxamide]
100 to 1000 | ≤ 10 | C[C@H]1CC[C@@H](NC(=O)c2ccc(C3CC3)cc2)CN1c1cnc(C(N)=O)c(Nc2ccc(N3CCN(C)CC3)c(F)c2)n1 [Example D-150, 5-[(2S,5R)-5-(4-cyclopropylbenzamido)-2-methylpiperidin-1-yl]-3-{[3-fluoro-4-(4-methylpiperazin-1-yl)phenyl]amino}pyrazine-2-carboxamide]
100 to 1000 | ≤ 10 | C[C@@H]1[C@H](NC(=O)c2ccc(OC(F)(F)F)cc2)CCCN1c1cnc(C(N)=O)c(Nc2cnn(C)c2)n1 [Example D-95, 3-[(1-methyl-1H-pyrazol-4-yl)amino]-5-[(2R,3R)-2-methyl-3-[4-(trifluoromethoxy)benzamido]piperidin-1-yl]pyrazine-2-carboxamide]
1000 to 10000 | ≤ 10 | Cc1cc(Nc2nc(N3CCC[C@@H](NC(=O)c4ccc(C(C)(C)O)cc4)C3)cnc2C(N)=O)sn1 [Example D-158, 5-[(3R)-3-[4-(2-hydroxypropan-2-yl)benzamido]piperidin-1-yl]-3-[(3-methyl-1,2-thiazol-5-yl)amino]pyrazine-2-carboxamide]
1000 to 10000 | 10 to 100 | C[C@@H]1CC[C@@H](NC(=O)c2ccc(C3CC3)cc2)CN1c1cnc(C(N)=O)c(Nc2cnn(C)c2)n1 [Example D-143, 5-[(2R,5R)-5-(4-cyclopropylbenzamido)-2-methylpiperidin-1-yl]-3-[(1-methyl-1H-pyrazol-4-yl)amino]pyrazine-2-carboxamide]
> 10000 | ≤ 10 | C[C@@H]1[C@H](NC(=O)c2ccc(C3CC3)cc2)CCCN1c1cnc(C(N)=O)c(Nc2ccc(OC3CCN(CC(F)(F)F)CC3)cc2)n1 [Example D-98, 5-[(2R,3R)-3-(4-cyclopropylbenzamido)-2-methylpiperidin-1-yl]-3-[(4-{[1-(2,2,2-trifluoroethyl)piperidin-4-yl]oxy}phenyl)amino]pyrazine-2-carboxamide]
> 10000 | 100 to 1000 | NC(=O)c1ncc(N2CCC[C@@H](n3ccc4cc(C5CC5)ccc4c3=O)C2)nc1Nc1ccc2ncccc2c1 [Example D-168, 5-[(3R)-3-(6-cyclopropyl-1-oxo-1,2-dihydroisoquinolin-2-yl)piperidin-1-yl]-3-[(quinolin-6-yl)amino]pyrazine-2-carboxamide]
> 10000 | 10 to 100 | C[C@@H]1[C@H](NC(=O)c2ccc(C3CC3)cc2F)CCCN1c1cnc(C(N)=O)c(Nc2ccc(N3CCN(C)CC3)cc2)c1 [Example D-126, 5-[(2R,3R)-3-(4-cyclopropyl-2-fluorobenzamido)-2-methylpiperidin-1-yl]-3-{[4-(4-methylpiperazin-1-yl)phenyl]amino}pyridine-2-carboxamide]
100 to 1000 | 100 to 1000 | Cc1nsc(Nc2nc(N3CCC[C@@H](NC(=O)N(C)C)[C@H]3C)cnc2C(N)=O)c1C [Example D-119, 3-[(dimethyl-1,2-thiazol-5-yl)amino]-5-[(2R,3R)-3-[(dimethylcarbamoyl)amino]-2-methylpiperidin-1-yl]pyrazine-2-carboxamide]
100 to 1000 | ≤ 10 | C[C@@H]1[C@H](NC(=O)c2ccc(C(F)(F)F)cc2)CCCN1c1cnc(C(N)=O)c(Nc2ccc(N3CCN(C)CC3)cc2)n1 [Example D-11, 5-[(2R,3R)-2-methyl-3-[4-(trifluoromethyl)benzamido]piperidin-1-yl]-3-{[4-(4-methylpiperazin-1-yl)phenyl]amino}pyrazine-2-carboxamide]
1000 to 10000 | 10 to 100 | Cc1ccc(-c2cnc([C@@H]3CCCN(c4cnc(C(N)=O)c(Nc5cc(C)ns5)n4)C3)[nH]2)cc1 [Example D-137, 3-[(3-methyl-1,2-thiazol-5-yl)amino]-5-[(3R)-3-[5-(4-methylphenyl)-1H-imidazol-2-yl]piperidin-1-yl]pyrazine-2-carboxamide]
1000 to 10000 | ≤ 10 | C[C@@H]1[C@H](NC(=O)c2ccc(C3CC3)cc2)CCCN1c1cnc(C(N)=O)c(Nc2cc(CN3CCCCC3)ns2)n1 [Example D-140, 5-[(2R,3R)-3-(4-cyclopropylbenzamido)-2-methylpiperidin-1-yl]-3-{[3-(piperidin-1-ylmethyl)-1,2-thiazol-5-yl]amino}pyrazine-2-carboxamide]
100 to 1000 | ≤ 10 | C[C@@H]1[C@H](NC(=O)N(C)C)CCCN1c1cnc(C(N)=O)c(Nc2ccc(N3CCN(C)CC3)cc2)n1 [Example D-111, 5-[(2R,3R)-3-[(dimethylcarbamoyl)amino]-2-methylpiperidin-1-yl]-3-{[4-(4-methylpiperazin-1-yl)phenyl]amino}pyrazine-2-carboxamide]
1000 to 10000 | ≤ 10 | C[C@@H]1[C@H](NC(=O)c2ccc(C3CC3)cc2F)CCCN1c1cnc(C(N)=O)c(Nc2cc(CN(C)C)ns2)n1 [Example D-122, 5-[(2R,3R)-3-(4-cyclopropyl-2-fluorobenzamido)-2-methylpiperidin-1-yl]-3-({3-[(dimethylamino)methyl]-1,2-thiazol-5-yl}amino)pyrazine-2-carboxamide]
1000 to 10000 | ≤ 10 | C[C@@H]1[C@H](NC(=O)N(C)C)CCCN1c1cnc(C(N)=O)c(Nc2ccc(C(=O)N3CCN(C)CC3)cc2)n1 [Example D-110, 5-[(2R,3R)-3-[(dimethylcarbamoyl)amino]-2-methylpiperidin-1-yl]-3-{[4-(4-methylpiperazine-1-carbonyl)phenyl]amino}pyrazine-2-carboxamide]
> 10000 | ≤ 10 | C[C@@H]1[C@H](NC(=O)c2ccc(C3CC3)cc2F)CCCN1c1cnc(C(N)=O)c(Nc2ccc(CN3CCN(C)CC3)cc2)c1 [Example D-125, 5-[(2R,3R)-3-(4-cyclopropyl-2-fluorobenzamido)-2-methylpiperidin-1-yl]-3-({4-[(4-methylpiperazin-1-yl)methyl]phenyl}amino)pyridine-2-carboxamide]
100 to 1000 | ≤ 10 | C[C@@H]1[C@H](NC(=O)c2ccc(C3CC3)cc2F)CCCN1c1cnc(C(N)=O)c(Nc2ccc(N3CCN(C4CCCC4)CC3)cc2)n1 [Example D-5, 3-{[4-(4-cyclopentylpiperazin-1-yl)phenyl]amino}-5-[(2R,3R)-3-(4-cyclopropyl-2-fluorobenzamido)-2-methylpiperidin-1-yl]pyrazine-2-carboxamide]
100 to 1000 | ≤ 10 | C[C@@H]1[C@H](NC(=O)c2ccc(C3CC3)cc2F)CCCN1c1cnc(C(N)=O)c(Nc2ccc(N3CCN(C)CC3=O)cc2)n1 [Example D-10, 5-[(2R,3R)-3-(4-cyclopropyl-2-fluorobenzamido)-2-methylpiperidin-1-yl]-3-{[4-(4-methyl-2-oxopiperazin-1-yl)phenyl]amino}pyrazine-2-carboxamide]
100 to 1000 | 10 to 100 | Cc1cc(Nc2nc(N3CCCC(c4ncc(-c5ccccc5)[nH]4)C3)cnc2C(N)=O)sn1 [Example D-164, 3-[(3-methyl-1,2-thiazol-5-yl)amino]-5-[3-(4-phenyl-3H-imidazol-2-yl)piperidin-1-yl]pyrazine-2-carboxamide]
1000 to 10000 | ≤ 10 | C[C@@H]1[C@H](NC(=O)c2ccc(C3CC3)cc2F)CCCN1c1cnc(C(N)=O)c(Nc2ccc(S(C)(=O)=O)cc2)n1 [Example D-133, 5-[(2R,3R)-3-(4-cyclopropyl-2-fluorobenzamido)-2-methylpiperidin-1-yl]-3-[(4-methanesulfonylphenyl)amino]pyrazine-2-carboxamide]
100 to 1000 | 10 to 100 | Cc1ccc(-c2cnc([C@H]3CCCN(c4cnc(C(N)=O)c(Nc5cc(C)ns5)n4)C3)[nH]2)cc1 [Example D-136, 3-[(3-methyl-1,2-thiazol-5-yl)amino]-5-[(3S)-3-[5-(4-methylphenyl)-1H-imidazol-2-yl]piperidin-1-yl]pyrazine-2-carboxamide]

Compound | IC50 (EGFR) [nM] | IC50 (BTK-WT) [nM]
C[C@@H]1[C@H](NC(=O)c2ccc(C3CC3)cc2)CCCN1c1cnc(C(N)=O)c(Nc2ccc(C3(C)CCN(C4CCCC4)CC3)cc2)n1 [Example D-112, 3-{[4-(1-cyclopentyl-4-methylpiperidin-4-yl)phenyl]amino}-5-[(2R,3R)-3-(4-cyclopropylbenzamido)-2-methylpiperidin-1-yl]pyrazine-2-carboxamide] | 100 to 1000 | ≤ 10
C[C@@H]1[C@H](NC(=O)c2ccc(C3CC3)cc2F)CCCN1c1cnc(C(N)=O)c(Nc2ccc(C3(C)CCN(C4CC4)CC3)cc2)n1 [Example D-138, 5-[(2R,3R)-3-(4-cyclopropyl-2-fluorobenzamido)-2-methylpiperidin-1-yl]-3-{[4-(1-cyclopropyl-4-methylpiperidin-4-yl)phenyl]amino}pyrazine-2-carboxamide] | 100 to 1000 | ≤ 10
C[C@@H]1[C@H](NC(=O)Nc2cccnc2)CCCN1c1cnc(C(N)=O)c(Nc2ccc(C3(C)CCN(C4CCCC4)CC3)cc2)n1 [Example D-9, 3-{[4-(1-cyclopentyl-4-methylpiperidin-4-yl)phenyl]amino}-5-[(2R,3R)-2-methyl-3-{[(pyridin-3-yl)carbamoyl]amino}piperidin-1-yl]pyrazine-2-carboxamide] | 10 to 100 | ≤ 10
